Consider one compound from patent US20160138077A1, “MONITORING AND ASSESSING DEACETYLASE ENZYME ACTIVITY” (THE GENERAL HOSPITAL CORPORATION, priority 2013, published 2016).

The test addresses T1, HDAC6 (Homo sapiens, UniProt Q9UBN7).
T1 sequence (Q9UBN7 1-1215): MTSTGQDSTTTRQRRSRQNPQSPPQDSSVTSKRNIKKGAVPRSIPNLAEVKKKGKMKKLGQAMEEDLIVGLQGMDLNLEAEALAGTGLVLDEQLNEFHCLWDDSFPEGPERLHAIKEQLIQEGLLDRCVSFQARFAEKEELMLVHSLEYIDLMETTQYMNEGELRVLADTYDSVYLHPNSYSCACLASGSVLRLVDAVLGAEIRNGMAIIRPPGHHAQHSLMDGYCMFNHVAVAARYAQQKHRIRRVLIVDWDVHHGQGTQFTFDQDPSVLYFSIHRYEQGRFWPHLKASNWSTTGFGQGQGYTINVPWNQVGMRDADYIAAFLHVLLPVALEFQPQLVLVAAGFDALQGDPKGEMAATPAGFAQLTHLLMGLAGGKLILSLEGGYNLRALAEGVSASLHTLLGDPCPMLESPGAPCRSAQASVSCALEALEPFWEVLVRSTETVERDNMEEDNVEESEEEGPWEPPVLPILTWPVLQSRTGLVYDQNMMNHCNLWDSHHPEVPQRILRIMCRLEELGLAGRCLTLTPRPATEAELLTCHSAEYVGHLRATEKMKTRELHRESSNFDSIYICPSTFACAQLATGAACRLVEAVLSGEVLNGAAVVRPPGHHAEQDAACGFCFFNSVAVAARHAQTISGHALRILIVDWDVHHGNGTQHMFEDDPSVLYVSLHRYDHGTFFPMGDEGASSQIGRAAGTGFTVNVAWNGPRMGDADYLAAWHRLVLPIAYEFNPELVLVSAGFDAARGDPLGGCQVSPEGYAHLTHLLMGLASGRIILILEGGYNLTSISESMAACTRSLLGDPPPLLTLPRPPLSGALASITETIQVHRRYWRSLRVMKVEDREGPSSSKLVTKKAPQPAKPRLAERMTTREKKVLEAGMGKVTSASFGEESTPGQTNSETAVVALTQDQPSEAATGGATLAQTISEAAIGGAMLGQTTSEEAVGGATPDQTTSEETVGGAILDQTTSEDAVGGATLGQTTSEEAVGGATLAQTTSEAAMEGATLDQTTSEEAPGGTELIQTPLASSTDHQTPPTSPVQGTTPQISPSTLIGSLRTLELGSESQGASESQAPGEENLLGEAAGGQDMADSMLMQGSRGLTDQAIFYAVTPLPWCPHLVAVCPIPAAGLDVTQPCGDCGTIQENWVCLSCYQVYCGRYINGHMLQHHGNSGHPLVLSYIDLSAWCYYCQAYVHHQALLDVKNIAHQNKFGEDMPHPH
Description: LCMS characterization of enzymatic deacetylation by HDAC6. Type of test: biochemical. Conditions: 5 μM probe, 12 hours at 37° C. On the procedure: The enzymatic cleavage of HP-1 and HP-2 was analyzed by performing LCMS assays with HeLa nuclear extract (AnaSpec), HeLa whole cell lysate (Santa Cruz Inc.), and the following purified HDAC isoforms: 1, 2, 3, 6 and 8 (HDAC1, 3 and 8 from Cayman Chemicals and HDAC2 and 6 provided by Dr. Stephen Haggarty). Solutions containing (i) vehicle with DMSO in HDAC buffer, (ii) 5 μM probe in HDAC buffer, (iii) 5 μM probe and HDAC enzyme/HeLa nuclear extract/HeLa whole cell lysate in HDAC buffer, or (iv) 5 μM probe and HDAC enzyme/HeLa nuclear extract/HeLa whole cell lysate pre-incubated with 10 μM SAHA (Provided by Dr. Stephen Haggarty) in HDAC buffer were incubated for 12 hours at 37° C. Following incubation, a 20 μL aliquot of supernatant from each sample was analyzed by LCMS. […] For HP-1, the (M+H)^+ ion for the corresponding aldehyde (8, DHP-1) was detected, which formed following reaction of the initial imine deacetylation product with water. […] The peak area for each detected compound was measured to determine the % deacetylation of each probe. All assay samples were analyzed in triplicate. […]
LCMS characterization of HDAC enzymatic action on HP-1 and HP-2. […] Following incubation, an aliquot of supernatant from each sample was analyzed by LCMS. […] The peak area for each detected compound was measured to determine the % deacetylation of each probe (full experimental details in Example 1).

Take `CC(=O)NC=CCCCCNC(=O)CCCCCNc1ccc([N+](=O)[O-])c2nonc12` [HP-1]: the “% HP-1 to DHP-1” value by setting is: (HDAC6, +SAHA (10 μM)) 0%; (HDAC6, −SAHA) 0%.
